Key:
[1] = test system: 31 receptors (alpha-adrenoceptors, dopamine, histamine, imidazoline, sigma, norepinephrine and serotonin receptors); assay: Displacement of radio-labelled ligands from 31 receptors (MDS Pharma Services); format: binding
Procedure: The interaction was estimated by the displacement of radio-labeled […] from their complex with the corresponding receptors by compound 1.1.1(4).HCl at its concentration of 10 mkM. […] The interaction was estimated by the displacement of radio-labeled […] from their complex with the corresponding receptors by compound 1.2.1(3).HCl at its concentration of 1 mkM. […] All radio-labelled experiments were carried out by MDS Pharma Services firm ([…].com/Services, Taipei, Taiwan) according to their protocols. Estimation of the results obtained is indicative of wide range of pharmacological activity of γ-carbolines of the general formula 1 towards alpha-adrenoceptors, dopamine receptors, histamine receptors, imidazoline receptors, sigma receptors, norepinephrine receptors and serotonin receptors.

[2] = test system: animals as in example 18.1.1; assay: Passive avoidance, memory disturbed by MK-801; format: in vivo, mice; conditions: 0.2 mg/kg and 1 mg/kg intraperitoneally before training; MK-801 0.1 mg/kg
mice [3] = assay: Tail suspension test; format: in vivo; conditions: injected for 4 days in doses of 0.05 mg/kg; 6 minutes test
Procedure: Mice behavior in tail suspension test. Mice were suspended by tail with scotch tape on holder over horizontal surface at a height of about 40 cm, and for 6 minutes the total duration of complete immobility episodes which is considered to be a measure of depressively-like state was registered. Automated computerized detection of motion with videosystem and Any-maze programm were used in test. […] This testifies the decreasing of time of a depressively-like state.

mice [4] = assay: Porsolt's Forced Swim Test; format: in vivo; conditions: injected for 4 days in doses of 1 mg/kg; 15 minutes test
Procedure: Mice Behavior in Porsolt's Forced Swim Test. The test apparatus represented a plastic vessel filled with water up to height of 18 cm at 20-22° C. Mice were placed in water and for 15 minutes the duration of immobile hanging in water-so called behavioural […], which is considered to be a measure of depressively-like state, was registered. Automated computerized detection of motion with videosystem and Any-maze programm were used in test. […] This testifies the decreasing of time of a depressively-like state.

[5] = molecular target: T1, recombinant human 5-HT6 receptor (Homo sapiens, UniProt P50406); assay: Antagonistic activity towards serotonin 5-HT6 receptors, cAMP cell function experiment; format: cell-based; conditions: HEK 293 cells expressing recombinant human 5-HT6 receptor; cAMP response to 10 μM serotonin; read-out: IC50, ability to block serotonin 5-HT6 receptors in the setting of cell function experiments
T1 construct: host or cells: HEK 293 cells with tetracycline-induced T-Rex system (Invitrogen)
T1 sequence (P50406 whole entry): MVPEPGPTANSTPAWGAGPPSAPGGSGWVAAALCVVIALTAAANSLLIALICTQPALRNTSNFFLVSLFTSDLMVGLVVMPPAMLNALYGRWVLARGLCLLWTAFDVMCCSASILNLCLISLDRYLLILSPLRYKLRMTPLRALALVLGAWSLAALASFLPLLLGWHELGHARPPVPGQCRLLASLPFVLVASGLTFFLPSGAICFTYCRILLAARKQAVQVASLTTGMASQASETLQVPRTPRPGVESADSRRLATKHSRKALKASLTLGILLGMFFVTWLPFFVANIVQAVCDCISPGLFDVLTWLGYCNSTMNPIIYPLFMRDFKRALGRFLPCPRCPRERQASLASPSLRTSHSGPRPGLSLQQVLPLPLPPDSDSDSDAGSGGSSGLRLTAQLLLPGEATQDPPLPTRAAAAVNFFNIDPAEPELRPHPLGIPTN
Procedure: Determination of antagonistic activity of substituted 8-sulfonyl-2,3,4,5-tetrahydro-1H-γ-carbolines of the general formula 1 towards serotonin 5-HT6 receptors. HEK 293 cells with tetracycline-induced T-Rex system (Invitrogen, USA) consistently expressing recombinant human 5-HT6 receptor, production of Etogen Scientific (USA), were used. The cells were grown in DMEM/10% FBS/1% AAS medium with Blasticidine S and Zeocin (both—Invitrogen, USA). According to the method worked up by the producer of T-Rex system tetracycline hydrochloride was added to the medium with the cells for the purpose of activation of 5-HT6 receptor expression. The cells were embedded in 96-well plates (30,000-40,000 cells per well) and incubated in 5%-CO2 incubator at 37° C. for 24 hs. Before experiments cells medium was replaced by Hank's balanced salt solution (HBSS), comprising 0.137 M NaCl, 5.4 mM KCl, 0.25 mM Na2HPO4, 0.44 mM KH2PO4, 1.3 mM CaCl2, 1.0 mM MgSO4, 5 mM HEPES (pH 7.4), 0.05% BSA and 1 mM IBMX. The tested compounds of general formula 1 were added to the cells in various concentrations. After incubation of the cells for 15 min at room temperature serotonin was added to them up to final concentration of 10 μM and incubation was continued for 30 min. The newly formed cAMP was determined by reagent kit LANCE cAMP Kit, according to the method described by the kit manufacturer […] (PerkinElmer, CIIIA). […] The data given testify that novel γ-carbolines of the general formula 1 are effective serotonin 5-HT6 receptor antagonists. Some of γ-carbolines of the general formula 1 have IC50<0.5 μM in the setting of cell function experiments (IC50—antagonist concentration blocking 5-HT6 receptors for 50%).

male mice of BALB/c line = assay: Mice Behavior in the Elevated Plus Maze test; format: in vivo; conditions: 0.05 mg/kg and 0.2 mg/kg intraperitoneally
Procedure: The experiments were carried out in aged male mice of BALB/c line weighing about 25 g. Animals were housed 5-7 per cage with water and food available. None of animals was acquainted with experimental set-up before. Each experimental group included 8 animals.
The procedure used was described earlier by Lister (Lister R. G. The use of a plus-maze to measure anxiety in the mouse. Psychopharmacology, 1987; 92:180-185). Plexiglass set-up consisted of two opened arms of 30×5 cm size and two closed arms of 30×5×15 cm size was used. Side arms were closed with transparent plexiglass and were connected with central zone via platform of 5×5 cm size. Opened arms, central platform and floor were made of black plexiglass. The set-up was mounted on a metallic base which was placed 38.5 cm above floor level.
Animals were injected intraperitoneally with placebo, Buspirone (5 mg/kg, 30 minutes before training), Lorazepam (0.05 mg/kg, 60 minutes before training) or with one of the compounds of the general formula 1, for example, compound 1.1.1(4).HCl or compound 1.2.1(3).HCl in doses 0.05 mg/kg and 0.2 mg/kg. Buspirone and Lorazepam were introduced in maximal effective dose, at which side sedative effect and general decrease of exploratory activity (number of arm entries during the test) were not observed yet.
Each mouse was placed in maze center with its head towards the opened arm. Over a period of 5 minutes the sequence and duration of arm entries were registered by means of computer program. Criterion for entry is location of all animal's paws inside the arm at the same time. Index of preference was calculated as ratio of the time spent by animal in opened arms as well as the number of entries into opened arms to the total time spent by it in opened and closed arms or, respectively, to the whole number of entries to arms of both types. The number of defecations left by mouse was regarded as additional parameter characterizing anxiety state.

Row | SMILES | % of radio-labelled ligands displacement ([1]; at 13 of 31 receptors, compound at 10 mkM, FIG. 1) | number of receptors the compound actively interacts with (displacement >60%) ([1]; of 31 receptors, compound at 10 mkM, FIG. 1) | effect on amnesia caused by MK-801, passive avoidance [2] | duration of mice complete immobility (mice [3]) | duration of immobile hanging of mice in water (mice [4]) | IC50 [5] | anxiolytic effect in elevated plus maze (male mice of BALB/c line) | interaction with 31 receptors (displacement of radio-labelled ligands) ([1]; FIG. 2, compound at 1 mkM per figure legend)
1 | CN1CCc2c(c3cc(S(=O)(=O)c4ccccc4)ccc3n2C)C1.Cl [1.1.1(4)•HCl, 2,5-dimethyl-8-(phenylsulfonyl)-2,3,4,5-tetrahydro-1H-γ-carboline hydrochloride] | > 60% | 13 | decrease amnesia caused by MK-801 markedly | decreased significantly | decreased almost thrice | 78 nM | well-marked anxiolytic effect | 
2 | CN1CCc2[nH]c3ccc(S(=O)(=O)Nc4cccc(F)c4)cc3c2C1.Cl [1.2.1(3)•HCl, 2-methyl-2,3,4,5-tetrahydro-1H-γ-carboline-8-sulfonic acid 3-fluorophenyl amide hydrochloride] |  |  | analogous effect | decreased significantly | decreased almost thrice | 15 nM | well-marked anxiolytic effect | Analogous results

Reference: patent US20120071493A1, “SUBSTITUTED 8-SULFONYL-2,3,4,5-TETRAHYDRO-1H-GAMMA-CARBOLINES, LIGANDS AND PHARMACEUTICAL COMPOSITION; METHOD FOR THE PRODUCTION AND USE OF SAME” (priority 2009, published 2012)
